Measured values as given in US8940885B2, “Cytotoxic nucleotides for targeted therapeutics” (Wake Forest University Health Sciences, priority 2006, dated 2015).

Key:
[1] = UV thermal melt (hyperchromicity); assay type: physicochemical
Protocol: The structural characteristics of the parent aptamer and modified aptamers were determined using circular dichroism (CD) spectroscopy and ultraviolet (UV) hyperchromicity measurements. The data for the CD spectroscopy are shown in FIGS. 4A (modified aptamer) and 4B (parent aptamer). The circular dichroism curve acquired before thermal melting is in blue and that obtained post-melt is green. A maximum positive ellipticity is observed at 270 nm consistent with a highly folded structure, probably consisting of A-form helices. The circular dichroism spectra for the modified aptamers are indistinguishable from circular dichroism spectra for the parent aptamer. The UV thermal melt data is shown in FIGS. 4C (modified aptamer) and 4D (parent aptamer). The melting temperature for parent aptamer and the modified aptamers is about 55° C.

[2] = biological target: T1, extracellular domain of PSMA (xPSM) (Homo sapiens, UniProt Q04609); settings: cited from earlier work
T1 construct: express the 706 amino acids comprising the extracellular domain of PSMA from Sf-9 (insect) cells using baculovirus; made in house; host or cells: Sf-9 insect cells, baculovirus (pBacGus3 vector); cDNA from LNCaP cells
T1 sequence (Q04609 44-750 limits assumed): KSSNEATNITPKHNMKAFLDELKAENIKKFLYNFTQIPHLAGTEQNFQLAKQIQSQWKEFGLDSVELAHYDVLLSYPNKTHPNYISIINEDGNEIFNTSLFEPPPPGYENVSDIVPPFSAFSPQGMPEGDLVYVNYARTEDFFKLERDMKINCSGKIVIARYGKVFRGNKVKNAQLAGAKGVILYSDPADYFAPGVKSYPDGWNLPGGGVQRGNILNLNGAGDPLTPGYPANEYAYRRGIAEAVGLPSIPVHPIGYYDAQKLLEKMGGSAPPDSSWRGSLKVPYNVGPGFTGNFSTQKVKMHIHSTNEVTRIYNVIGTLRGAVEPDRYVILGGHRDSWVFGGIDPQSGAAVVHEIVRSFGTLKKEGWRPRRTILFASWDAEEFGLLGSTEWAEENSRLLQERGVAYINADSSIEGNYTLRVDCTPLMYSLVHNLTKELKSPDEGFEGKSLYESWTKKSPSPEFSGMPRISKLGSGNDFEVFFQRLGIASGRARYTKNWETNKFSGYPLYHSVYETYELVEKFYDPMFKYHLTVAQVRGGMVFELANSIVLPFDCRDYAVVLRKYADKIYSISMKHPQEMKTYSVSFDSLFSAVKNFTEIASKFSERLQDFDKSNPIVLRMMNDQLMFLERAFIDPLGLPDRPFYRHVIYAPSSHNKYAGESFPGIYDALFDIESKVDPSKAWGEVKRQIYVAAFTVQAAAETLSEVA

DU145 PC cells = test: Cytotoxicity of FdUMP[10], laboratory studies and NCI 60 cell line screen; assay type: cell-based
PC3 cells = test: as above; assay type: cell-based, human
LNCaP cells = test: as above; assay type: cell-based, human
colon cancer cells = test: Uptake of FdUMP[10] multimer in other cancer cells; assay type: cell-based; settings: other types of cancer cells (e.g. colon cancer)
[3] = test system: PC cells and normal prostatic epithelial cells; test: Trypan blue exclusion assays; assay type: cell-based, human
Protocol: The cytotoxicity of the candidate modified aptamers is also evaluated with regard to prostate cells that have been obtained from normal prostate tissue derived from radical prostatectomies. A procedure for establishing primary human epithelial cell cultures from the disease-free regions of the tissue (based on histology) has been described (Peehl et al., In Vitro Cell Dev. Biol. 22: 90 (1986); Peehl et al., In Vitro Cell Dev. Biol. 24: 530-536 (1988); Barreto et al., Cancer Epidemiol. Biomarkers Prey. 9: 265-270 (2000). The cultures are grown in MCDB 105 medium (Sigma, St. Louis, Mo.) that has been supplemented with growth factors and hormones as described previously (Peehl et al., In Vitro Cell Dev Biol 22: 90 (1986)). Trypan blue exclusion is used as a marker of viable cells. The data are analyzed to identify those candidate modified aptamers sequences that are highly efficient at killing PC cells that express xPSM, but that are not cytotoxic towards normal prostate cells. Candidate modified aptamers that display the greatest differential cytotoxicity are further developed as drugs for the treatment of human PC.
(but not 5FU) is currently under investigation.

prostate cancer cells [4] = test system: prostate cancer cells
[5] = test system: DU145 prostate cancer cells
[6] = test system: PC3 prostate cancer cells
prostate cancer cells [7] = test system: prostate cancer cells; remark: listed apart in the source

Substance	stability of folded structure ([1]; 37° C.)	melting temperature ([1]; UV thermal melt)	binding affinity for xPSM [2]	times more potent than 5FU (DU145 PC cells; DU145 PC cells)	GI50 (DU145 PC cells; DU145 cells, GI50 value from the NCI 60 cell line screen, read-out: IC50 (the source's name))	sensitivity of PC3 cells (PC3 cells)	times more potent than 5FU (PC3 cells; PC3 cells)	sensitivity of LNCaP cells (LNCaP cells)	uptake of multimer relative to prostate cancer cells (colon cancer cells)	differential sensitivity between PC cells and normal prostatic epithelial cells [3]	cytotoxicity relative to 5FU or FdU (prostate cancer cells [4])	drug concentrations at which cytotoxic towards prostate cancer cells (prostate cancer cells [4])	cytotoxicity relative to monomeric fluoropyrimidines (5FU, FdU, FdUMP) [5]	cytotoxicity relative to monomeric fluoropyrimidines (5FU, FdU, FdUMP) [6]	effect of phosphatase or nucleotidase inhibitor on cytotoxicity (prostate cancer cells [7])	uptake in multimeric form (prostate cancer cells [7]; prostate cancer cells)	tolerability in vivo
5′rGGGAGGACGAUGCGGAUCAGCCAUGUUUACGUCAC UCCUUGUCAAUCCUCAUCGGC-3′ (GGGAGGACGAUGCGGAUCAGCCAUGUUUACGUCACUCCUUGUCAAUCCUCAUCGGC; RNA, backbone not given here) [A10-3]	stable at 37 °C	about 55 °C	high affinity														
FdUMP[10]				1,585 time	5.01 nM	highly sensitive	631 times	highly sensitive	less efficient	large differential sensitivity	substantially more cytotoxic	10 to 100 nM	substantially more cytotoxic	substantially more cytotoxic	Neither inhibitor substantially reduced the cytotoxicity	efficiently take up	very well-tolerated
